target: T1, PAF receptor (human platelet plasma membrane) (Homo sapiens, UniProt P25105); assay: Inhibition of ^3 H-PAF receptor binding to human platelet plasma membrane; conditions: ^3 H-PAF 0.5 nM, 0° C., 1 hour
T1 construct: Platelet concentrates were obtained from a hospital blood bank; from tissue; host or cells: human platelets (hospital blood bank concentrates), lysed platelet membranes
Method: Compounds of general formula I inhibit PAF induced functions in both the cellular and tissue levels by changing the PAF binding to its specific receptor site. The ability of compounds of general formula I to inhibit platelet aggregation in human platelet-rich plasma, and to inhibit the binding of PAF to its specific receptor binding site on human platelet plasma membranes was measured in the assay described in the pharmacology example.
The inhibition of ^3 H-PAF binding to human platelet plasma membrane by compounds of general formula I was determined by isotopic labelling and filtration techniques. Platelet concentrates were obtained from a hospital blood bank. These platelet concentrates (500-2500 ml.) were centrifuged at 800 rpm for 10 minutes in a SORVALL RC3B centrifuge to remove the red blood cells present. (The word SORVALL is a trade mark.) The supernatant was subsequently centrifuged at 3,000 rpm in a SORVALL RC3B centrifuge to pellet the platelets present. The platelet rich pellets were resuspended in a minimum volume of buffer (150 Mm NaCl, 10 mM Tris, 2 mM EDTA, pH 7.5) and layered onto Ficoll-Paque gradients, 9 ml platelet concentrate to 2 ml Ficoll, and centrifuged at 1,900 rpm for 15 minutes in a SORVALL RT6000 centrifuge. This step removes the residual red blood cells and other nonspecific material such as lymphocytes from the preparation. The platelets which form a band between the plasma and the Ficoll were removed, resuspended in the above buffer and centrifuged at 3,000 rpm for 10 minutes in a SORVALL RT6000 centrifuge. The pelleted platelets were resuspended in buffer (10 mM Tris, 5 mM MgCl2, 2 mM EDTA, pH 7.0), snap-freezed in liquid N2 and allowed to thaw slowly at room temperature in order to lyse the platelets. The latter step was repeated at least 3 times to ensure proper lysis. The lysed platelets were centrifuged at 3,000 rpm for 10 minutes in a SORVALL RT6000 centrifuge and resuspended in buffer. The latter step was reseated twice in order to remove any cytoplasmic proteins which may hydrolyse the platelet activating factor (PAF) receptor. The prepared platelet membranes may be stored at -70° C. After thawing the prepared membranes were centrifuged in a SORVALL RT6000 at 3,000 rpm for 10 minutes and resuspended in assay buffer.
The assay was conducted by preparing a series of a Tris-buffered solutions of the selected antagonist of predetermined concentrations. Each of these solutions contained ^3 H-PAF (0.5 nM; 1-O-(^3 H]octadecyl-2-acetyl-sn-glycero-3-phosphoryl choline with a specific activity of 132 Ci/mmol), […], a known amount of the test antagonist, and a sufficient amount of Tris-buffer solution (10 mM Tris, 5 mM MgCl2, pH 7.0, 0.25% BSA) to make the final volume 1 ml. Incubation was initiated by the addition of 100 μg of the isolated membrane fraction to each of the above solutions at 0° C. Two control samples, one which ([…]) contained all the ingredients described above except the antagonist and the other (C2) contains C1 plus a 1000-fold excess of unlabelled PAF, were also prepared and incubated simultaneously with the test samples. After 1 hour incubation, each solution was filtered rapidly under vacuo through a WHATMAN GF/C glass fiber falter in order to separate unbound PAF from bound PAF. (The word WHATMAN is a trade mark.) The residue in each case was rapidly washed 4 times with 5 ml cold (4° C.) Tris-buffer solution. Each washed residue was dried under vacuum on a sampling manifold and placed into vials containing 20 ml of OPTIPHASE MP scintillation fluid and the radioactivity counted in a liquid scintillation counter. (The word OPTIPHASE is a trade mark.) Defining the counts for total binding with antagonist from a test sample as "TBA"; the counts for total binding from the control sample C1 as "TB"; and the counts for nonspecific binding from the control sample C2 as "NSB", the percent inhibition of each test antagonist can be determined by the following equation. […]

T1 sequence (P25105 whole entry): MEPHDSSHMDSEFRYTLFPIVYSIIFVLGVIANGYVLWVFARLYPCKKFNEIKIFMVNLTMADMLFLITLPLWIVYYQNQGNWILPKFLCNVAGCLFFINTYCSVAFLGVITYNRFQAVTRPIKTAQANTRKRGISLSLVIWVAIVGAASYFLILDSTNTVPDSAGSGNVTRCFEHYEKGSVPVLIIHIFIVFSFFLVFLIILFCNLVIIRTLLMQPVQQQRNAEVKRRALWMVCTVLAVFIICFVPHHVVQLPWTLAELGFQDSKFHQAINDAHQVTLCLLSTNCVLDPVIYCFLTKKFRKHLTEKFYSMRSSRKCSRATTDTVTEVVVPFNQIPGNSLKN

Question: Which IC50 does the source give for `Cc1nc2ccccc2n1Cc1ccc(S(=O)(=O)N2CCC[C@H]3CCCC[C@@H]32)cc1` (relative stereo) [Example 92, trans-Decahydroquinolinyl 4-(1H-2-methylbenzimidazylmethyl) benzenesulphonamide] here?
Answer: 0.7 µM

Question: `CCN(C(=O)c1ccc(Cn2c(C)nc3ccccc32)cc1)C1CCCCC1` [Example 21, N-Cyclohexyl-N-ethyl 4-(1H-2-methylbenzimidazylmethyl)benzamide] was tested. Which IC50 did it give?
Answer: 0.5 µM

Question: For `Cc1nc2ccccc2n1Cc1ccc(C(=O)N(C2CCCCC2)C2CCCCC2)cc1` [Example 22, N,N-Dicyclohexyl 4-(1H-2-methylbenzimidazylmethyl)benzamide], which IC50 is on record?
Answer: 0.65 µM

Question: For `CSc1nc2ccccc2n1Cc1ccc(C(=O)N(C)C2CCCCC2)cc1` [Example 26, N-Cyclohexyl-N-methyl 4-(1H-2-thiomethylbenzimidazylmethyl) benzamide], which IC50 is on record?
Answer: 3 µM

Question: Which IC50 does the source give for `Cc1nc2ccccc2n1Cc1ccc(S(=O)(=O)N(C)C2CCCCC2)cc1` [Example 41, N-Cyclohexyl-N-methyl 4-(1H-2-methylbenzimidazylmethyl) benzenesulphonamide] here?
Answer: 0.3 µM

Question: Which IC50 does the source give for `Cc1nc2cc([N+](=O)[O-])ccc2n1Cc1ccc(S(=O)(=O)N(C)C2CCCCC2)cc1` [Example 44, N-Cyclohexyl-N-methyl 4-(1H-2-methyl-5-nitrobenzimidazylmethyl) benzenesulphonamide] here?
Answer: 5 µM

Question: With `CCN(C1CCCCC1)S(=O)(=O)c1ccc(Cn2c(C)nc3ccccc32)cc1` [Example 49, N-Cyclohexyl-N-ethyl 4-(1H-2-(2-methyl)benzimidazylmethyl) benzenesulphonamide] as the compound, how does the IC50 read?
Answer: 0.5 µM

Question: `Cc1nc2ccccc2n1Cc1ccc(S(=O)(=O)N2CCCCC2)cc1` [Example 50, Piperidinyl 4-(1H-2-methylbenzimidazylmethyl)benzenesulphonamide] was tested. Which IC50 did it give?
Answer: 2 µM

Question: Which IC50 does the source give for `Cc1nc2ccccc2n1Cc1ccc(NC(=O)C2CCCCC2)cc1` [Example 58, N-4-(1H-2-Methylbenzimidazylmethyl)benzyl cyclohexylamide] here?
Answer: 2 µM

Question: How did the IC50 turn out when `Cc1nc2ccccc2n1Cc1ccc(N(C)P(=O)(c2ccccc2)c2ccccc2)cc1` [Example 59] was run?
Answer: 0.5 µM

Question: `CSC(c1ccc(C(=O)N(C)C2CCCCC2)cc1)n1cnc2ccccc21` (stereo not drawn) [Example 63, N-Cyclohexyl-N-methyl 4-(1H-benzimidazylthiomethylmethyl) benzamide] was tested. Which IC50 did it give?
Answer: 0.5 µM

Question: Which IC50 does the source give for `Cc1nc2ccccc2n1Cc1ccc(S(=O)(=O)NCc2ccccc2Cl)cc1` [Example 80, N-2-Chlorobenzyl 4-(1H-2-methylbenzimidazylmethyl) benzenesulphonamide] here?
Answer: 0.9 µM

Source: patent US5314880A, “Benzimidazole derivatives” (British Bio-technology Limited, priority 1989, dated 1994)
